Experimental data taken from patent US12144864B2, “Tubulysins and protein-tubulysin conjugates” (Regeneron Pharmaceuticals, Inc., priority 2018, dated 2024).
Where “and” joins values, the source holds several entries; their conditions need not be identical. Identical values can stand only once. Like-named read-outs stand apart in the source and are kept apart here. Non-standard residues stand in square brackets, D forms with d. Residues, ends and D or L forms follow the SMILES beside them. *: point of attachment. Dolaproine = CO[C@@H]([C@@H]1CCCN1)[C@@H](C)C(=O)O; Dil = CC[C@H](C)[C@H](NC)[C@@H](CC(=O)O)OC; X1 = C[C@@H](N*)[C@@H](O)c1ccccc1; NMeV = CN[C@H](C(=O)O)C(C)C

Experiments:
C4-2 cells [1] = experiment: Cytotoxicity of anti-STEAP2 ADCs, payloads and reference compounds in C4-2 cells; assay type: cell-based, human; conditions: for IC50: top concentration 100 nM, 3-fold serial dilution; for % kill: at maximum concentration tested
Protocol: (§1) To test the ability of the disclosed tubulysin payloads to kill human cell lines, an in vitro cytotoxicity assay was performed. In vitro cytotoxicity of the disclosed payloads, as well as reference compounds, were evaluated using the CellTiter-Glo Assay Kit (Promega, Cat #G7573), in which the quantity of ATP present is used to determine the number of viable cells in culture. For the assay, C4-2, HEK293, or T47D cells were seeded at 4000 cells/well on Nunclon white 96-well plates in complete growth medium (DME high glucose:Ham's F12 at 4:1, 10% FBS, 100 units/ml Penicillin, 100 ug/ml streptomycin, 53 ug/ml glutatmine, 10 ug/ml insulin, 220 ng/ml biotin, 12.5 pg/ml T3, 12.5 ug/ml Adenine, 4 ug/ml transferrin for C42 cells; DME high glucose, 10% FBS, 100 units/ml Penicillin, 100 ug/ml streptomycin, 53 ug/ml glutatmine for HEK293; RPMI, 10% FBS, 100 units/ml Penicillin, 100 ug/ml streptomycin, 53 ug/ml glutatmine, 10 ug/ml insulin, 10 mM HEPEs, 200 nM Sodium Pyruvate for T47D cells) and grown overnight at 37° C. in 5% CO2. For cell viability curves, 1:3 serially diluted payloads were added to the cells at final concentrations ranging from 100 nM to […], including a no treatment control group, and were then incubated for 5 days. After the 5-day incubation, cells were incubated at room temperature with 100 μL of CellTiter-Glo reagents for 10 minutes. Relative luminescence units (RLU) were determined on a Victor plate reader (PerkinElmer). The IC50 values were determined from a four-parameter logistic equation over a 10-point response curve (GraphPad Prism). All IC50 values are expressed in molar (M) concentration. The percent cell killing (% kill) at the maximum concentration tested was estimated from the following formula (100−% viable cells). Averages±standard deviation (SD) are included where replicate experiments were performed.
To further test the ability of the disclosed tubulysin payloads, reference compounds, and antibody drug conjugates using these payloads, a cytotoxicity assay was performed using C4-2 cells as described in this example (see above). For these studies, anti-STEAP2 antibodies were conjugated to select tubulysins payloads, and the compounds were tested at concentrations starting at 100 nM with 3-fold serial dilution. All IC50 values are expressed in nM concentration and the percent cell killing at the maximum concentration tested was estimated from the following formula (100−% viable cells).

HCT-15 cells = experiment: Cytotoxicity in panel of MDR cell lines, HCT-15 (72 h and 144 h); assay type: cell-based, human
Procedure, shortened: (§2)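 MDR lines were seeded at 1000 cells/well in their normal growth media: RPMI/10% FBS for HCT-15 and HL60/MX2, RPMI/20% FBS for H69AR, and Waymouth's:McCoy's 1:1 with 10% FBS for MES-SA/MX2. Cells were exposed to 1:3 serially diluted payloads for 72 h or 144 h, and viability was read by CellTiter-Glo ATP luminescence. IC50 came from a four-parameter logistic fit; % kill at top concentration = 100 − % viable.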

T47D cells = experiment: Cell-based killing assay of payloads (CellTiter-Glo), T47D cells; parameters: species or system human; conditions: 5-day incubation
Procedure, shortened: (§3)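 Cells plated at 4000/well in line-specific complete medium, grown overnight, then exposed to 1:3 serial dilutions of payload (100 nM to […]) for 5 days. ATP-based CellTiter-Glo luminescence read; IC50 from four-parameter logistic 10-point fit, and % kill at top concentration as 100 − % viable.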

H69AR cells = experiment: Cytotoxicity in panel of MDR cell lines, H69AR (72 h and 144 h); assay type: cell-based, human
Procedure, shortened: as §2

HCT15/PRLR cells = experiment: Cytotoxicity of anti-PRLR tubulysin ADCs and payloads in HCT15/PRLR cells with or without Verapamil; assay type: cell-based, human; conditions: for IC50: Homo sapiens, HCT-15
Protocol: as §1
Bioassays were developed to assess the efficacy of an anti-PRLR antibody conjugated with the disclosed tubulysin payloads and reference payloads. It was developed to assess the activity of tubulysin payloads after internalization of an anti-PRLR-tubulysin ADC into cells, release of the payload, and subsequent cytotoxicity. For this assay, a HCT15 line was engineered to express human full length PRLR (accession #NP_000940.1). The resulting stable cell line is referred to herein as HCT15/PRLR. In vitro cytotoxicity of the disclosed payloads, reference compounds, and tested ADCs were evaluated similarly as described in this example using HCT15/PRLR cells with or without […] of Verapamil diluted in normal culture medium. The compounds were tested at concentrations starting at 100 nM with 3-fold serial dilution. All IC50 values are expressed in nM concentration and the percent cell killing (% kill) at the maximum concentration tested was estimated from the following formula (100−% viable cells).

C4-2 cells [2] = experiment: Cell-based killing assay of payloads (CellTiter-Glo), C4-2 cells; parameters: species or system human; conditions: 5-day incubation; for IC50: average ± SD where replicates; for C4-2 % Kill: at maximum concentration tested (100 − % viable cells)
Procedure, shortened: as §3

MES-SA/MX2 cells = experiment: Cytotoxicity in panel of MDR cell lines, MES-SA/MX2 (72 h and 144 h); assay type: cell-based, human
Procedure, shortened: as §2

HEK293 cells = experiment: Cell-based killing assay of payloads (CellTiter-Glo), HEK293 cells; parameters: species or system human; conditions: 5-day incubation
Procedure, shortened: as §3

HL60/MX2 cells = experiment: Cytotoxicity in panel of MDR cell lines, HL60/MX2 (72 h and 144 h); assay type: cell-based, human
Procedure, shortened: as §2

HCT15 cells = experiment: cells; assay type: cell-based, human; conditions: for HCT-15 + verapamil % Kill / IC50 / HCT-15 % Kill: HCT15 cells; for HCT-15 + verapamil % Kill / HCT-15 % Kill: maximum % cell killing
Procedure, shortened: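 HCT15 colorectal carcinoma cells, 1000 per well in RPMI/10% FBS, with or without 5 ug/mL verapamil, exposed to 1:3 serially diluted payloads for 5 days at 37 °C. Viability measured by CellTiter-Glo ATP luminescence; IC50 from four-parameter logistic fit of a 10-point curve, % kill at top concentration.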

[3] = at maximum concentration tested
[4] = with 5 ug/mL Verapamil, read-out: HCT-15 + verapamil IC50

With C#CCCCON(C(=O)[C@@H](NC(=O)[C@H]1CCCCN1C)[C@@H](C)CC)[C@H](C[C@@H](OC(C)=O)c1nc(C(=O)N[C@@H](Cc2ccc(N)cc2)CC(C)(C)C(=O)O)cs1)C(C)C [Ve, (4S)-4-({2-[(1R,3R)-1-(Acetyloxy)-4-methyl-3-[(2S,3S)-3-methyl-2-{[(2R)-1-methylpiperidin-2-yl]formamido}-N-(pent-4-yn-1-yloxy)pentanamido]pentyl]-1,3-thiazol-4-yl}formamido)-5-(4-aminophenyl)-2,2-dimethylpentanoic acid] the IC50 (C4-2 cells [1]; Homo sapiens) was 0.063 nM, the “% kill” value (C4-2 cells [1]) was 99% and the “HCT-15 % Kill 72 h” value (HCT-15 cells; 72 h incubation) was 97.5%. For the same compound, the “HCT-15 % Kill 144 h” value (HCT-15 cells; 144 h incubation) was 99.7%, the IC50 (HCT-15 cells; Homo sapiens, 72 h incubation, read-out: HCT-15 IC50 72 h) was 0.0922 nM and the IC50 (HCT-15 cells; Homo sapiens, 144 h incubation, read-out: HCT-15 IC50 144 h) was 0.158 nM. The IC50 (T47D cells; Homo sapiens, T47D, 120 h) was 0.0731 nM, the “T47D % Kill” value (T47D cells; [3]) was 69.8% and the “H69AR % Kill 72 h” value (H69AR cells; 72 h incubation) was 96.6%. For the same compound, the “H69AR % Kill 144 h” value (H69AR cells; 144 h incubation) was 99.5%, the IC50 (H69AR cells; Homo sapiens, 72 h incubation, read-out: H69AR IC50 72 h) was 0.331 nM and the IC50 (H69AR cells; Homo sapiens, 144 h incubation, read-out: H69AR IC50 144 h) was 0.559 nM. For the same compound, the IC50 (HCT15/PRLR cells; with Verapamil, read-out: IC50 (nM) on HCT15/PRLR w/ Verapamil) was 0.033 nM, the IC50 (HCT15/PRLR cells; without Verapamil, read-out: IC50 (nM) on HCT15/PRLR w/o Verapamil) was 0.203 nM and the “% kill on HCT15/PRLR w/ Verapamil” value (HCT15/PRLR cells; with Verapamil, at maximum concentration tested) was 99%. The “% kill on HCT15/PRLR w/o Verapamil” value (HCT15/PRLR cells; without Verapamil, at maximum concentration tested) was 99%, the IC50 (C4-2 cells [2]; Homo sapiens, C4-2, 120 h) was under 0.047 nM and the “C4-2 % Kill” value (C4-2 cells [2]) was 92.6%. For the same compound, the “MES-SA/MX2 % Kill 72 h” value (MES-SA/MX2 cells; 72 h incubation) was 98.9%, the “MES-SA/MX2 % Kill 144 h” value (MES-SA/MX2 cells; 144 h incubation) was 100% and the IC50 (MES-SA/MX2 cells; Homo sapiens, 72 h incubation, read-out: MES-SA/MX2 IC50 72 h) was 0.52 nM. The IC50 (MES-SA/MX2 cells; Homo sapiens, 144 h incubation, read-out: MES-SA/MX2 IC50 144 h) was 0.734 nM, the IC50 (HEK293 cells; Homo sapiens, HEK293, 120 h) was 0.103 nM and the “HEK293 % Kill” value (HEK293 cells; [3]) was 88.5%. For the same compound, the “HL60/MX2 % Kill 72 h” value (HL60/MX2 cells; 72 h incubation) was 98.3%, the “HL60/MX2 % Kill 144 h” value (HL60/MX2 cells; 144 h incubation) was 100% and the IC50 (HL60/MX2 cells; Homo sapiens, 72 h incubation, read-out: HL60/MX2 IC50 72 h) was under 0.015 nM. The IC50 (HL60/MX2 cells; Homo sapiens, 144 h incubation, read-out: HL60/MX2 IC50 144 h) was under 0.015 nM, the “HCT-15 + verapamil % Kill” value (HCT15 cells; with 5 ug/mL Verapamil) was 98.2 ± 1.2% and the IC50 (HCT15 cells; [4]) was 0.0654 nM. For the same compound, the “HCT-15 % Kill” value (HCT15 cells; without Verapamil) was 98.6 ± 0.7% and the IC50 (HCT15 cells; Homo sapiens, HCT-15, without Verapamil, read-out: HCT-15 IC50) was 0.273 nM.

In the case of CC[C@H](C)[C@@H]([C@@H](CC(=O)N1CCC[C@H]1[C@H](OC)[C@@H](C)C(=O)N[C@H](C)[C@@H](O)c1ccccc1)OC)N(C)C(=O)[C@@H](NC(=O)[C@@H](NC)C(C)C)C(C)C [MMAE, Monomethyl auristatin E, reference compound] (H-[NMeV]V[Dil][Dolaproine]-X1), the “% kill” value (C4-2 cells [1]) is reported as 99%, the IC50 (C4-2 cells [1]) is reported as 0.22 nM and the “HCT-15 % Kill 72 h” value (HCT-15 cells; 72 h incubation) is reported as 93.7%. For the same compound, the IC50 (HCT-15 cells; 72 h incubation, read-out: HCT-15 IC50 72 h) was 16.8 nM, the “H69AR % Kill 72 h” value (H69AR cells; 72 h incubation) was 66.8% and the IC50 (H69AR cells; 72 h incubation, read-out: H69AR IC50 72 h) was 0.923 nM. The “H69AR % Kill 144 h” value (H69AR cells; 144 h incubation) was 92.7%, the IC50 (H69AR cells; 144 h incubation, read-out: H69AR IC50 144 h) was 0.683 nM and the IC50 (C4-2 cells [2]) was 0.287 nM. The “C4-2 % Kill” value (C4-2 cells [2]) was 93.7% and 93.7 ± 2.5%, the “MES-SA/MX2 % Kill 72 h” value (MES-SA/MX2 cells; 72 h incubation) was 65.6% and the IC50 (MES-SA/MX2 cells; 72 h incubation, read-out: MES-SA/MX2 IC50 72 h) was 37.3 nM. For the same compound, the “MES-SA/MX2 % Kill 144 h” value (MES-SA/MX2 cells; 144 h incubation) was 58.1%, the IC50 (MES-SA/MX2 cells; 144 h incubation, read-out: MES-SA/MX2 IC50 144 h) was 0.683 nM and the “HL60/MX2 % Kill 72 h” value (HL60/MX2 cells; 72 h incubation) was 88.7%. The IC50 (HL60/MX2 cells; 72 h incubation, read-out: HL60/MX2 IC50 72 h) was 0.418 nM, the “HL60/MX2 % Kill 144 h” value (HL60/MX2 cells; 144 h incubation) was 99.6% and the IC50 (HL60/MX2 cells; 144 h incubation, read-out: HL60/MX2 IC50 144 h) was 0.164 nM. The “HCT-15 + verapamil % Kill” value (HCT15 cells; with 5 ug/mL Verapamil) was 98.4 ± 0.5%, the IC50 (HCT15 cells; [4]) was 0.782 nM and the “HCT-15 % Kill” value (HCT15 cells; without Verapamil) was 97.1 ± 3.7%. The IC50 (HCT15 cells; without Verapamil, read-out: HCT-15 IC50) was 17.7 nM, the “HCT-15 IC50/HCT-15+Verapamil IC50 ratio” value (HCT15 cells; IC50 without Verapamil divided by IC50 with Verapamil) was 23.7 and the “HCT15 IC50/HCT-15 + Verapamil IC50” value (HCT15 cells; ratio of IC50 without Verapamil to IC50 with Verapamil) was 23.7 ± 12.0.
